From patent publication US20260027125A1, “AN ANTIBACTERIAL PARENTERAL FORMULATION AND METHODS THEREOF” (BUGWORKS RESEARCH INDIA PVT. LTD., priority 2022, published 2026)

Legend:
[1] = Solubility study without acetic acid; assay type: physicochemical; details: aqueous with cosolvent or surfactant or cyclodextrin, combination of ascorbic acid and lactic acid, read-out: solubilized at a concentration of
[2] = Solubility of free amine in solvents; assay type: physicochemical
[3] = pKa (selection of counterions); assay type: physicochemical; details: weakly basic nature of the compound
[4] = counter ion selected for salt screening; cited from earlier work

For Cn1c(=O)ccc2ccc(F)c(CCNC[C@H]3CN(c4cnc5c(n4)NC(=O)CO5)C(=O)O3)c21 [compound of Formula (I), (S)-6-(5-(((2-(7-fluoro-1-methyl-2-oxo-1,2-dihydroquinolin-8-yl)ethyl)amino)methyl)-2-oxooxazolidin-3-yl)-2H-pyrazino[2,3-b][1,4]oxazin-3(4H)-one], the solubility [1] was 20 mg/mL, the solubility in solvents [2] was “soluble only in dichloromethane and methanol (1:1) mixture” and the pKa [3] was roughly 6.81.
For CCS(=O)(=O)O [ethane sulfonic acid], the “pKa (first value)” value [4] is given as 1.68.
